These results are taken from ChEMBL document CHEMBL2021786, “The discovery of 2-fluoro-N-(3-fluoro-4-(5-((4-morpholinobutyl)amino)-1,3,4-oxadiazol-2-yl)phenyl)benzamide, a full agonist of the alpha-7 nicotinic acetylcholine receptor showing efficacy in the novel object recognition model of cognition enhancement” (Bioorg Med Chem Lett, 2012).

Data set [1] in a line: Tmax in po dosed rat. The data set is classed as ADME, organism-based. The conditions noted are these: in vivo.
The next data set has as its system MDR1. Nature of the data set: Intrinsic permeability of the compound in MDCK cells expressing MDR1. The data set is classed as ADME, cell-based, Canis lupus familiaris. The note with it: dog.
Data set [2] deals with Liver. Description: Clearance in rat liver assessed per gram of tissue. The data set is classed as ADME, tissue-based. The conditions noted are these: in vivo.
In data set [3] the test system is Liver. Nature of the data set: Clearance in human liver assessed per gram of tissue. The data set is classed as ADME, tissue-based.
Data set [4] can be described thus: Blood clearance in Sprague-Dawley rat at 1 mg/kg, iv. Also on record: dose 1 mg/kg, route intravenous. It counts as ADME, organism-based.
Data set [5] is described as follows: Half life in Sprague-Dawley rat at 1 mg/kg, iv. Set-up: dose 1 mg/kg, route intravenous. It counts as ADME, organism-based. The note with it: in vivo.
Data set [6] can be described thus: Tmax in Sprague-Dawley rat at 3 mg/kg, po. The conditions noted are these: in vivo. Also on record: dose 3 mg/kg, route oral. The data set is classed as ADME, organism-based.
Data set [7] can be described thus: Oral bioavailability in Sprague-Dawley rat at 3 mg/kg. The data set is classed as ADME, organism-based. The note with it: in vivo.
A short description of data set [8]: Ratio of drug level in brain to blood in CD1 mouse at 5 mg/kg, po after 3 hrs. The data set is classed as ADME, organism-based. Set-up: dose 5 mg/kg, route oral.
The nature of data set [9]: Ratio of drug level in brain to blood in Lister Hooded rat at 3 mg/kg, po after 3 hrs. Also on record: dose 3 mg/kg, route oral. The data set is classed as ADME, organism-based.
In a further data set the test system is Blood. Description: Drug level in novel object recognition model of rat blood at 0.1 mg/kg, po. Set-up: dose 0.1 mg/kg, route oral. It counts as ADME, organism-based. The conditions noted are these: in vivo, read-out: Drug uptake.

SMILES strings stand for the structures.

Regarding `COc1cc(NC(=O)c2ccccc2F)ccc1-c1nnc(NCCCN2CCCCC2)o1`, in data set [1], the Tmax was found to be 3 h.

In the data set on MDR1, `O=C(Nc1ccc(-c2nnc(NCCCCN3CCOCC3)o2)cc1)c1ccccc1F` displayed a Papp of 75.6 ×10⁻⁶ cm/s. The CLH was 0.8 mL/min/g with Liver [2] and less than 0.5 mL/min/g with Liver [3]. The same molecule displayed a clearance in data set [4] of 37 mL/min/kg. Besides, in [5], the half-life was 1.6 h. In [6], the Tmax came out at 1 h. This molecule showed a bioavailability in data set [7] of 22%. Further, the Kp at 3 h in data set [8] was 0.62.

In the data set with MDR1, `O=C(Nc1ccc(-c2nnc(NCCCCN3CCCCC3)o2)cc1)c1ccccc1` came in with a Papp of 33.7 ×10⁻⁶ cm/s.

Turning to `COc1cc(NC(=O)c2ccccc2F)ccc1-c1nnc(NCCCCN2CCCCC2)o1`, the Papp in the data set on MDR1 came to 25.1 ×10⁻⁶ cm/s.

Turning to `O=C(Nc1ccc(-c2nnc(NCCCCN3CCCCC3)o2)cc1)C1CCCCC1`, the Papp in the data set on MDR1 came to 9.8 ×10⁻⁶ cm/s.

`O=C(Nc1ccc(-c2nnc(NCCCN3CCN4CCC3CC4)o2)cc1)c1ccccc1F` showed a Papp in the data set on MDR1 of 4.2 ×10⁻⁶ cm/s.

`O=C(Nc1ccc(-c2nnc(NCCCCN3CCCCC3)o2)cc1)c1ccccc1F` came in with a Papp with MDR1 of 127 ×10⁻⁶ cm/s. The CLH with Liver [2] was less than 0.5 mL/min/g; with Liver [3], 0.5 mL/min/g. Besides, the clearance in [4] is 42 mL/min/kg. Besides, the half-life in data set [5] is 2.7 h. In [9], the Kp at 3 h turned out to be 0.99.

Consider `COc1cc(NC(=O)c2ccccc2F)ccc1-c1nnc(NCCCCN2CCOCC2)o1`, for which the Papp in the data set on MDR1 was determined as 57.3 ×10⁻⁶ cm/s.

For `O=C(Nc1ccc(-c2nnc(NCCCCN3CCOCC3)o2)c(F)c1)c1ccccc1F`, in the data set on MDR1, the Papp stood at 73.6 ×10⁻⁶ cm/s. Moreover, the CLH in the data set on Liver [2] and with Liver [3] was less than 0.5 mL/min/g each time. The molecule further returned a clearance in data set [4] of 54 mL/min/kg. For the same molecule, the Tmax in data set [6] was 1 h. The molecule also had a bioavailability in [7] of 20%. Besides, the partition ratio (Kp) at 3 h in data set [8] turned out to be 0.53. For the same molecule, the concentration in the data set with Blood was found to be 10.5 nM.

The molecule `O=C(Nc1ccc(-c2nnc(NCCCCN3CCC(F)CC3)o2)cc1)c1ccccc1F` had a Papp in the data set on MDR1 of 70.3 ×10⁻⁶ cm/s.

`O=C(Nc1ccc(-c2nnc(NCCCCN3CCOCC3)o2)c(F)c1)c1ccccc1` showed a Papp with MDR1 of 28.5 ×10⁻⁶ cm/s.

The term Tmax denotes the time from dosing to the highest level. A word on the Papp: it is a coefficient for how fast a substance crosses the barrier. By clearance is commonly meant the volume of plasma or blood freed of the substance per unit of time. As usually defined, the half-life is the time in which the quantity being followed falls by half. Low values mean rapid decline, high ones slow decline. By bioavailability is commonly meant dose-corrected exposure relative to a reference, in per cent. Low readings indicate little systemic uptake, high ones much systemic uptake. What is called Kp is tissue or fluid exposure divided by exposure in the circulation.
